# ChEMBL document CHEMBL4011590, “Structure-activity relationship studies on 3,5-dinitrophenyl tetrazoles as antitubercular agents” (Eur J Med Chem, 2017)
# Columns and labels:
# [1] = system: Mycobacterium tuberculosis; assay: Antimycobacterial activity against Mycobacterium tuberculosis H37Rv CNCTC My 331/88 after 14 days by micromethod; type: functional; details: H37Rv CNCTC My 331/88, 336 h
# [2] = system: Mycobacterium tuberculosis; assay: Antimycobacterial activity against Mycobacterium tuberculosis H37Rv CNCTC My 331/88 after 21 days by micromethod; type: functional; details: H37Rv CNCTC My 331/88, 504 h
# Mycobacterium avium [3] = assay: Antimycobacterial activity against Mycobacterium avium CNCTC My 330/80 after 14 days by micromethod; type: functional; details: CNCTC My 330/80, 336 h
# Mycobacterium avium [4] = assay: Antimycobacterial activity against Mycobacterium avium CNCTC My 330/80 after 21 days by micromethod; type: functional; details: CNCTC My 330/80, 504 h
# Mycobacterium kansasii [5] = assay: Antimycobacterial activity against Mycobacterium kansasii CNCTC My 235/80 after 7 days by micromethod; type: functional; details: CNCTC My 235/80, 168 h
# Mycobacterium kansasii [6] = assay: Antimycobacterial activity against Mycobacterium kansasii CNCTC My 235/80 after 14 days by micromethod; type: functional; details: CNCTC My 235/80, 336 h
# Mycobacterium kansasii [7] = assay: Antimycobacterial activity against Mycobacterium kansasii CNCTC My 235/80 after 21 days by micromethod; type: functional; details: CNCTC My 235/80, 504 h
# Mycobacterium kansasii [8] = assay: Antimycobacterial activity against Mycobacterium kansasii isolate 6509/96 after 7 days by micromethod; type: functional; details: isolate 6509/96, 168 h
# Mycobacterium kansasii [9] = assay: Antimycobacterial activity against Mycobacterium kansasii isolate 6509/96 after 14 days by micromethod; type: functional; details: isolate 6509/96, 336 h
# Mycobacterium kansasii [10] = assay: Antimycobacterial activity against Mycobacterium kansasii isolate 6509/96 after 21 days by micromethod; type: functional; details: isolate 6509/96, 504 h
# CHO-K1 = assay: Cytotoxicity against CHOK1 cells after 24 hrs by MTT assay; type: cell-based; details: Cricetulus griseus, CHO-K1, 24 h
# Staphylococcus aureus [11] = assay: Antibacterial activity against Staphylococcus aureus ATCC 6538 after 24 hrs by broth microdilution method; type: functional; details: ATCC 6538, 24 h
# Staphylococcus aureus [12] = assay: Antibacterial activity against Staphylococcus aureus ATCC 6538 after 48 hrs by broth microdilution method; type: functional; details: ATCC 6538, 48 h
# Staphylococcus aureus [13] = assay: Antibacterial activity against methicillin-resistant Staphylococcus aureus HK5996/08 after 24 hrs by broth microdilution method; type: functional; details: HK5996/08, 24 h
# Staphylococcus aureus [14] = assay: Antibacterial activity against methicillin-resistant Staphylococcus aureus HK5996/08 after 48 hrs by broth microdilution method; type: functional; details: HK5996/08, 48 h
# [15] = system: Staphylococcus epidermidis; assay: Antibacterial activity against Staphylococcus epidermidis HK6966/08 after 24 hrs by broth microdilution method; type: functional; details: HK6966/08, 24 h
# [16] = system: Staphylococcus epidermidis; assay: Antibacterial activity against Staphylococcus epidermidis HK6966/08 after 48 hrs by broth microdilution method; type: functional; details: HK6966/08, 48 h
# Enterococcus sp. [17] = assay: Antibacterial activity against Enterococcus sp. HK14365/08 after 24 hrs by broth microdilution method; type: functional; details: HK14365/08, 24 h
# Enterococcus sp. [18] = assay: Antibacterial activity against Enterococcus sp. HK14365/08 after 48 hrs by broth microdilution method; type: functional; details: HK14365/08, 48 h
# Escherichia coli [19] = assay: Antibacterial activity against Escherichia coli ATCC 8739 after 24 hrs by broth microdilution method; type: functional; details: ATCC 8739, 24 h
# Escherichia coli [20] = assay: Antibacterial activity against Escherichia coli ATCC 8739 after 48 hrs by broth microdilution method; type: functional; details: ATCC 8739, 48 h
# Klebsiella pneumoniae [21] = assay: Antibacterial activity against Klebsiella pneumoniae HK11750/08 after 24 hrs by broth microdilution method; type: functional; details: HK11750/08, 24 h
# Klebsiella pneumoniae [22] = assay: Antibacterial activity against Klebsiella pneumoniae HK11750/08 after 48 hrs by broth microdilution method; type: functional; details: HK11750/08, 48 h
# Klebsiella pneumoniae [23] = assay: Antibacterial activity against extended spectrum beta-lactamase producing Klebsiella pneumoniae HK14368/08 after 24 hrs by broth microdilution method; type: functional; details: HK14368/08, 24 h
# Klebsiella pneumoniae [24] = assay: Antibacterial activity against extended spectrum beta-lactamase producing Klebsiella pneumoniae HK14368/08 after 48 hrs by broth microdilution method; type: functional; details: HK14368/08, 48 h
# Pseudomonas aeruginosa [25] = assay: Antibacterial activity against Pseudomonas aeruginosa ATCC 9027 after 24 hrs by broth microdilution method; type: functional; details: ATCC 9027, 24 h
# Pseudomonas aeruginosa [26] = assay: Antibacterial activity against Pseudomonas aeruginosa ATCC 9027 after 48 hrs by broth microdilution method; type: functional; details: ATCC 9027, 48 h
# Candida albicans [27] = assay: Antifungal activity against Candida albicans ATCC 44859 after 24 hrs by broth microdilution method; type: functional; details: ATCC 44859, 24 h
# Candida albicans [28] = assay: Antifungal activity against Candida albicans ATCC 44859 after 48 hrs by broth microdilution method; type: functional; details: ATCC 44859, 48 h
# Candida tropicalis [29] = assay: Antifungal activity against Candida tropicalis 156 after 24 hrs by broth microdilution method; type: functional; details: Candida tropicalis, 156, 24 h
# Candida tropicalis [30] = assay: Antifungal activity against Candida tropicalis 156 after 48 hrs by broth microdilution method; type: functional; details: Candida tropicalis, 156, 48 h
# Pichia kudriavzevii [31] = assay: Antifungal activity against Candida krusei E28 after 24 hrs by broth microdilution method; type: functional; details: E28, 24 h
# Pichia kudriavzevii [32] = assay: Antifungal activity against Candida krusei E28 after 48 hrs by broth microdilution method; type: functional; details: E28, 48 h
# Nakaseomyces glabratus [33] = assay: Antifungal activity against Candida glabrata 20/I after 24 hrs by broth microdilution method; type: functional
# Nakaseomyces glabratus [34] = assay: Antifungal activity against Candida glabrata 20/I after 48 hrs by broth microdilution method; type: functional
# Trichosporon asahii [35] = assay: Antifungal activity against Trichosporon asahii 1188 after 24 hrs by broth microdilution method; type: functional; details: Trichosporon asahii, 1188, 24 h
# Trichosporon asahii [36] = assay: Antifungal activity against Trichosporon asahii 1188 after 48 hrs by broth microdilution method; type: functional; details: Trichosporon asahii, 1188, 48 h
# Aspergillus fumigatus [37] = assay: Antifungal activity against Aspergillus fumigatus 231 after 24 hrs by broth microdilution method; type: functional; details: Aspergillus fumigatus, 231, 24 h
# Aspergillus fumigatus [38] = assay: Antifungal activity against Aspergillus fumigatus 231 after 48 hrs by broth microdilution method; type: functional; details: Aspergillus fumigatus, 231, 48 h
# Lichtheimia corymbifera [39] = assay: Antifungal activity against Absidia corymbifera 272 after 24 hrs by broth microdilution method; type: functional; details: Lichtheimia corymbifera, 272, 24 h
# Lichtheimia corymbifera [40] = assay: Antifungal activity against Absidia corymbifera 272 after 48 hrs by broth microdilution method; type: functional; details: Lichtheimia corymbifera, 272, 48 h
# [41] = system: Trichophyton mentagrophytes; assay: Antifungal activity against Trichophyton mentagrophytes 445 after 72 hrs by broth microdilution method; type: functional; details: Trichophyton mentagrophytes, 445, 72 h
# [42] = system: Trichophyton mentagrophytes; assay: Antifungal activity against Trichophyton mentagrophytes 445 after 120 hrs by broth microdilution method; type: functional; details: Trichophyton mentagrophytes, 445, 120 h
smiles,measurement,setting,value
O=[N+]([O-])c1cc(-c2nnn(Cc3ccc(Br)cc3)n2)cc([N+](=O)[O-])c1,MIC99,[1],0.25 µM
same,MIC99,[2],0.25 µM
same,MIC99,Mycobacterium avium [3],4 µM
same,MIC99,Mycobacterium avium [4],8 µM
same,MIC99,Mycobacterium kansasii [5],0.25 µM
same,MIC99,Mycobacterium kansasii [6],1 µM
same,MIC99,Mycobacterium kansasii [7],1 µM
same,MIC99,Mycobacterium kansasii [8],0.25 µM
same,MIC99,Mycobacterium kansasii [9],1 µM
same,MIC99,Mycobacterium kansasii [10],1 µM
same,IC50,CHO-K1,55 µM
same,MIC,Staphylococcus aureus [11],62.5 µM
same,MIC,Staphylococcus aureus [12],62.5 µM
same,MIC,Staphylococcus aureus [13],> 125 µM
same,MIC,Staphylococcus aureus [14],> 125 µM
same,MIC,[15],31.2 µM
same,MIC,[16],31.2 µM
same,MIC,Enterococcus sp. [17],> 125 µM
same,MIC,Enterococcus sp. [18],> 125 µM
same,MIC,Escherichia coli [19],> 125 µM
same,MIC,Escherichia coli [20],> 125 µM
same,MIC,Klebsiella pneumoniae [21],> 125 µM
same,MIC,Klebsiella pneumoniae [22],> 125 µM
same,MIC,Klebsiella pneumoniae [23],> 125 µM
same,MIC,Klebsiella pneumoniae [24],> 125 µM
same,MIC,Pseudomonas aeruginosa [25],> 125 µM
same,MIC,Pseudomonas aeruginosa [26],> 125 µM
same,MIC,Candida albicans [27],> 500 µM
same,MIC,Candida albicans [28],> 500 µM
same,MIC,Candida tropicalis [29],> 500 µM
same,MIC,Candida tropicalis [30],> 500 µM
same,MIC,Pichia kudriavzevii [31],> 500 µM
same,MIC,Pichia kudriavzevii [32],> 500 µM
same,MIC,Nakaseomyces glabratus [33],> 500 µM
same,MIC,Nakaseomyces glabratus [34],> 500 µM
same,MIC,Trichosporon asahii [35],> 500 µM
same,MIC,Trichosporon asahii [36],> 500 µM
same,MIC,Aspergillus fumigatus [37],> 500 µM
same,MIC,Aspergillus fumigatus [38],> 500 µM
same,MIC,Lichtheimia corymbifera [39],> 500 µM
same,MIC,Lichtheimia corymbifera [40],> 500 µM
same,MIC,[41],> 500 µM
same,MIC,[42],> 500 µM
